{"source": "patent US7208517B1", "about": "“Endothelin antagonists” (Abbott Labortories, priority 1994, dated 2007)", "system": "male subjects with hormone refractory prostate cancer", "experiment": "Bone scan (bone scan index, skeletal involvement) of treated subjects", "format": "in vivo, human", "conditions": "versus placebo", "description": "Studies were performed on male subjects with asymptomatic hormone refractory prostate cancer with rising PSA levels and on male subjects with symptomatic hormone refractory prostate cancer with rising PSA levels and pain. Subjects in the phase II studies had castrate levels of testosterone, either due to pharmacologic intervention, via leuprolide (Lupron®) or goserelin (Zoladex®), or via surgical castration. Subjects received ABT-627 or placebo. The following tests were conducted:\nABT-627 was formulated in 2.5 and 10 mg doses. An oral liquid formulation of ABT-627 was also prepared as follows: 1 mg/ml ABT-627, 50% glycerin, 14% alcohol, and water. Matching placebos were also provided.\nBone scans were performed with an NDA approved, Tc-99m phosphonate type radiopharmaceutical. This technique uses whole body format (skull to feet) so that anterior and posterior images are presented when using a 510 K-approved gamma camera. […] Each site was evaluated against a confidence score of 1 to 5, where 1 is negative, 2 is probably negative, 3 is equivocal, 4 is probably positive, and 5 is definitely positive. […] In addition, in a blinded study, a reference nuclear medicine physician interpreted the bone scans quantitatively as follows: the percent of involved bone was estimated for each individual bone, and the individual bone involvement was summed to calculate a global percent bone scan index (BSI). […]"}
{"smiles": "CCCCCN(CCCC)C(=O)CN1C[C@H](c2ccc3c(c2)OCO3)[C@@H](C(=O)O)[C@@H]1c1ccc(OC)cc1", "note": "[ABT-627]", "values": [{"measurement": "proportion of total skeletal involvement by bone scan (FIG. 6)", "result": "a decrease in the proportion of total skeketal involvement"}]}
